# Experimental data reported in patent publication US11040035B2, “3-oxo-2,6-diphenyl-2,3-dihydropyridazine-4-carboxamides” (BAYER PHARMA AKTIENGESELLSCHAFT, priority 2016, dated 2021).
# Tests used:
# AHR [1] = biological target: T1, AHR (Homo sapiens, UniProt P35869); test: In vitro assay 2: agonism in human cell line (transactivation assay)
# T1 sequence (P35869 11-848): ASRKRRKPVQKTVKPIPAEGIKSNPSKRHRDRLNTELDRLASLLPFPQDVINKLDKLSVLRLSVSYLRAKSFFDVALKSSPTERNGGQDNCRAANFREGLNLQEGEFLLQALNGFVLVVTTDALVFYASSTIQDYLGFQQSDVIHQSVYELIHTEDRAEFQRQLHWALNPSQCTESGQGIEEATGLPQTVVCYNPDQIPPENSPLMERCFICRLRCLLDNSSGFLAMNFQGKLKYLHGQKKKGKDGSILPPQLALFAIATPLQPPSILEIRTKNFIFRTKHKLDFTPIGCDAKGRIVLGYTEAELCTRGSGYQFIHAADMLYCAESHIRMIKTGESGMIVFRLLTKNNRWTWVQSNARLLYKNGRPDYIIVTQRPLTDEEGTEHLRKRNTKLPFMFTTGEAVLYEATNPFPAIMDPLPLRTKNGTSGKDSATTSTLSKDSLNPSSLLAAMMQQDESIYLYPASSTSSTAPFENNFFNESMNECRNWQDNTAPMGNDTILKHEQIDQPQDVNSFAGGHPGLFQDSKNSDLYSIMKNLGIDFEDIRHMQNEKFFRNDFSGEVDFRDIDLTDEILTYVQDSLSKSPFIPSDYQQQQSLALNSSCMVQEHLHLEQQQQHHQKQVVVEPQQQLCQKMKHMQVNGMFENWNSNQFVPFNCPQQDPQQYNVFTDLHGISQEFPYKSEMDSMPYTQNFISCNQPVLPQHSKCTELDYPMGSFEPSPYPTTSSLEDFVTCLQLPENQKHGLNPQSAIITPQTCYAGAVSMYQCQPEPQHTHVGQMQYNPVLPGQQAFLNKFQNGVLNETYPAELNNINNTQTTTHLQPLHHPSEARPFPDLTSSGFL
# AHR [2] = biological target: T1, AHR; test: In vitro assay 1: antagonism in human cell line (transactivation assay, kynurenic acid prestimulated); settings: Assay 1: AHR-luc Hum Antagonism IC50 [M], 150 μM kynurenic acid, 20 hours, firefly luciferase
# [3] = read-out: Assay 2: AHR-luc Hum Agonism IC50, no kynurenic acid, 20 hours, firefly luciferase
# [4] = Assay 2: AHR-luc Hum Agonism IC50 [M], no kynurenic acid, 20 hours, firefly luciferase
Structure (SMILES),IC50 (AHR [1]; [3]),IC50 (AHR [2]),IC50 (AHR [1]; [4])
"O=C(NCC(O)C(F)(F)F)c1cc(-c2ccc(Cl)c(F)c2)nn(-c2cccc(F)c2)c1=O (single isomer, unassigned) [Example 284, 6-(4-chloro-3-fluorophenyl)-2-(3-fluorophenyl)-3-oxo-N-(3,3,3-trifluoro-2-hydroxypropyl)-2,3-dihydropyridazine-4-carboxamide]",> 2e-05 M,8.39e-07 M,–
"O=C(NC(CO)C1CCOC1)c1cc(-c2ccc(Cl)c(F)c2)nn(-c2cccc(F)c2)c1=O (single isomer, unassigned) [Example 292, 6-(4-Chloro-3-fluorophenyl)-2-(3-fluorophenyl)-N-[2-hydroxy-1-(tetrahydrofuran-3-yl)ethyl]-3-oxo-2,3-dihydropyridazine-4-carboxamide]",–,3.09e-07 M,> 2e-05 M
"O=C(NC(CO)C1CCOC1)c1cc(-c2ccc(Cl)c(F)c2)nn(-c2cccc(F)c2)c1=O (single isomer, unassigned) [Example 294, 6-(4-Chloro-3-fluorophenyl)-2-(3-fluorophenyl)-N-[2-hydroxy-1-(tetrahydrofuran-3-yl)ethyl]-3-oxo-2,3-dihydropyridazine-4-carboxamide]",> 2e-05 M,6.17e-07 M,–
"O=C(NC(CO)C1CCOC1)c1cc(-c2ccc(Cl)c(F)c2)nn(-c2cccc(F)c2)c1=O (single isomer, unassigned) [Example 295, 6-(4-Chloro-3-fluorophenyl)-2-(3-fluorophenyl)-N-[2-hydroxy-1-(tetrahydrofuran-3-yl)ethyl]-3-oxo-2,3-dihydropyridazine-4-carboxamide]",> 2e-05 M,8.3e-07 M,–
"O=C(NC[C@@H](O)C(F)(F)F)c1cc(-c2ccc(Cl)c(Cl)c2)nn(-c2cccc(F)c2)c1=O (single isomer, unassigned) [Example 299, 6-(3,4-Dichlorophenyl)-2-(3-fluorophenyl)-3-oxo-N-(3,3,3-trifluoro-2-hydroxypropyl)-2,3-dihydropyridazine-4-carboxamide]",–,7.42e-07 M,> 2e-05 M
"O=C(NCC(O)C(F)(F)F)c1cc(-c2ccc(Cl)c(Cl)c2)nn(-c2cccc(F)c2)c1=O (single isomer, unassigned) [Example 308, 6-(3,4-Dichlorophenyl)-2-(3-fluorophenyl)-3-oxo-N-(3,3,3-trifluoro-2-hydroxypropyl)-2,3-dihydropyridazine-4-carboxamide]",–,1.77e-07 M,> 2e-05 M
"O=C(NC(CO)C1CCCO1)c1cc(-c2ccc(Cl)cc2)nn(-c2cccc(F)c2)c1=O (single isomer, unassigned) [Example 316, 1,4-anhydro-5-({[6-(4-chlorophenyl)-2-(3-fluorophenyl)-3-oxo-2,3-dihydropyridazin-4-yl]carbonyl}amino)-2,3,5-trideoxyhexitol]",–,3.7e-07 M,> 2e-05 M
"C[C@@H](O)CCNC(=O)c1cc(-c2ccc(C(F)(F)F)cc2)nn(-c2cccc(F)c2)c1=O (single isomer, unassigned) [Example 330]",–,1.21e-07 M,> 2e-05 M
"O=C(N[C@H]1CC[C@@H]1O)c1cc(-c2ccc(Cl)cc2)nn(-c2cccc(F)c2)c1=O (single isomer, unassigned) [Example 335, (−)-6-(4-chlorophenyl)-2-(3-fluorophenyl)-N-(trans-2-hydroxycyclobutyl)-3-oxo-2,3-dihydropyridazine-4-carboxamide]",–,4.05e-07 M,> 2e-05 M
"O=C(NC(CO)C1CCCO1)c1cc(-c2ccc(C(F)(F)F)cc2)nn(-c2cccc(F)c2)c1=O (single isomer, unassigned) [Example 339, 1,4-anhydro-2,3,5-trideoxy-5-[({2-(3-fluorophenyl)-3-oxo-6-[4-(trifluoromethyl)phenyl]-2,3-dihydropyridazin-4-yl}carbonyl)amino]hexitol]",–,4.59e-08 M,> 2e-05 M
"CC(NC(=O)c1cc(-c2ccc(Cl)cc2)nn(-c2cccc(F)c2)c1=O)C(O)CO (single isomer, unassigned) [Example 346, 6-(4-chlorophenyl)-N-(3,4-dihydroxybutan-2-yl)-2-(3-fluorophenyl)-3-oxo-2,3-dihydropyridazine-4-carboxamide]",–,1.98e-07 M,> 2e-05 M
"CC(NC(=O)c1cc(-c2ccc(Cl)cc2)nn(-c2cccc(F)c2)c1=O)C(O)CO (single isomer, unassigned) [Example 347, 6-(4-chlorophenyl)-N-(3,4-dihydroxybutan-2-yl)-2-(3-fluorophenyl)-3-oxo-2,3-dihydropyridazine-4-carboxamide]",> 2e-05 M,1.69e-07 M,–
"CC(O)C(NC(=O)c1cc(-c2ccc(C(F)(F)F)cc2)nn(-c2cccc(F)c2)c1=O)C(F)(F)F (single isomer, unassigned) [Example 349, 2-(3-fluorophenyl)-3-oxo-N-(1,1,1-trifluoro-3-hydroxybutan-2-yl)-6-[4-(trifluoromethyl)phenyl]-2,3-dihydropyridazine-4-carboxamide]",–,3.54e-09 M,> 2e-05 M
"CC(O)C(NC(=O)c1cc(-c2ccc(C(F)(F)F)cc2)nn(-c2cccc(F)c2)c1=O)C(F)(F)F (single isomer, unassigned) [Example 350, 2-(3-fluorophenyl)-3-oxo-N-(1,1,1-trifluoro-3-hydroxybutan-2-yl)-6-[4-(trifluoromethyl)phenyl]-2,3-dihydropyridazine-4-carboxamide]",> 2e-05 M,2.08e-07 M,–
"O=C(N[C@@H]1CC[C@@H]1O)c1cc(-c2ccc(Cl)cc2)nn(-c2cccc(F)c2)c1=O (single isomer, unassigned) [Example 358]",–,1.15e-07 M,> 2e-05 M
"CC(NC(=O)c1cc(-c2ccc(Cl)cc2)nn(-c2cccc(F)c2)c1=O)C(O)CO (single isomer, unassigned) [Example 359, 6-(4-chlorophenyl)-N-(3,4-dihydroxybutan-2-yl)-2-(3-fluorophenyl)-3-oxo-2,3-dihydropyridazine-4-carboxamide]",> 2e-05 M,2.67e-08 M,–
"CC(NC(=O)c1cc(-c2ccc(Cl)cc2)nn(-c2cccc(F)c2)c1=O)C(O)CO (single isomer, unassigned) [Example 360, 6-(4-chlorophenyl)-N-(3,4-dihydroxybutan-2-yl)-2-(3-fluorophenyl)-3-oxo-2,3-dihydropyridazine-4-carboxamide]",> 2e-05 M,1.39e-08 M,–
"N#Cc1cccc(-n2nc(-c3ccc(Cl)cc3)cc(C(=O)NCC(O)C(F)(F)F)c2=O)c1 (single isomer, unassigned) [Example 363, 6-(4-chlorophenyl)-2-(3-cyanophenyl)-3-oxo-N-(3,3,3-trifluoro-2-hydroxypropyl)-2,3-dihydropyridazine-4-carboxamide]",–,2.22e-07 M,> 2e-05 M
"N#Cc1cccc(-n2nc(-c3ccc(Cl)cc3)cc(C(=O)NCC(O)C(F)(F)F)c2=O)c1 (single isomer, unassigned) [Example 364, 6-(4-chlorophenyl)-2-(3-cyanophenyl)-3-oxo-N-(3,3,3-trifluoro-2-hydroxypropyl)-2,3-dihydropyridazine-4-carboxamide]",> 2e-05 M,5.72e-07 M,–
"Cc1cccc(-n2nc(-c3ccc(Cl)cc3)cc(C(=O)NCC(O)C(F)(F)F)c2=O)c1 (single isomer, unassigned) [Example 367, 6-(4-chlorophenyl)-2-(3-methylphenyl)-3-oxo-N-(3,3,3-trifluoro-2-hydroxypropyl)-2,3-dihydropyridazine 4-carboxamide]",–,5e-07 M,> 2e-05 M
"Cc1cccc(-n2nc(-c3ccc(Cl)cc3)cc(C(=O)NCC(O)C(F)(F)F)c2=O)c1 (single isomer, unassigned) [Example 368, 6-(4-chlorophenyl)-2-(3-methylphenyl)-3-oxo-N-(3,3,3-trifluoro-2-hydroxypropyl)-2,3-dihydropyridazine-4-carboxamide]",> 2e-05 M,1.86e-06 M,–
"O=C(N[C@H]1COC[C@H]1O)c1cc(-c2ccc(Cl)cc2)nn(-c2cccc(F)c2)c1=O (single isomer, unassigned) [Example 384, 6-(4-chlorophenyl)-2-(3-fluorophenyl)-N-[cis-4-hydroxytetrahydrofuran-3-yl]-3-oxo-2,3-dihydropyridazine-4-carboxamide]",–,2.4e-08 M,> 2e-05 M
"O=C(N[C@H]1COC[C@H]1O)c1cc(-c2ccc(Cl)cc2)nn(-c2cccc(F)c2)c1=O (single isomer, unassigned) [Example 385, 6-(4-chlorophenyl)-2-(3-fluorophenyl)-N-[cis-4-hydroxytetrahydrofuran-3-yl]-3-oxo-2,3-dihydropyridazine-4-carboxamide]",> 2e-05 M,8.8e-08 M,–
